One series has as its system MES-SA. Put plainly: Tumor cell killing, MES-SA (parental uterine sarcoma). The class given is cell-based, human. Conditions: MES-SA, SARCOMA; read-out: Tumor cell killing (IC50) concentration. How it is done:
A. 6aa inhibits the growth of parental (MES-SA) and Paclitaxel resistant (MES-SA/DX5) cell lines with equal efficiency. The parental uterine sarcoma cells and the MDR positive (MES-SA/DX5) cells were plated into 6 well dishes and treated with various concentrations of 6aa and Paclitaxel for 96 h. The number of viable cells from duplicate plates was determined by trypan blue exclusion. B. Soft Agar Assays. MIA-PaCa-2 cells (1.0×10^5) were plated in soft agar containing various concentrations of each compound in triplicates. After three weeks of growth, the plates were stained for 48 h using 0.05% nitroblue tetrazolium solution. Representative plates were photographed using an Olympus stereoscope mounted with a Sony digital camera system (DKC5000, Sony Inc). Tissue Culture and Reagents: […] Cell lines were purchased from ATCC. Cell lines were routinely grown in DMEM or RPM1 (CellGro) supplemented with 10% fetal bovine serum (Atlas) and 1 unit/mL penicillin-streptomycin (Gibco). A number of tumor cell lines were tested using a dose response end point assay system. The cells were grown in either DMEM or RPMI supplemented with 10% fetal bovine serum and 1 unit/mL Penicillin-Streptomycin solution. […] Cell counts were determined from duplicate wells after 96 h of treatment. The total number of viable cells was determined by trypan blue exclusion.

The test system of a further series is K562. Put plainly: Tumor cell killing, K562. The class given is cell-based, human. The note with it: K562, CML; read-out: Tumor cell killing (IC50) concentration. How it is done: (§1) Tissue Culture and Reagents: Paclitaxel was purchased from Sigma. Cell lines were purchased from ATCC. Cell lines were routinely grown in DMEM or RPM1 (CellGro) supplemented with 10% fetal bovine serum (Atlas) and 1 unit/mL penicillin-streptomycin (Gibco).
(§2) A number of tumor cell lines were tested using a dose response end point assay system. The cells were grown in either DMEM or RPMI supplemented with 10% fetal bovine serum and 1 unit/mL Penicillin-Streptomycin solution. The tumor cells were plated into 6 well dishes at a cell density of 1.0×10^5 cells/mL/well and compounds were added 24 h later at various concentrations. Cell counts were determined from duplicate wells after 96 h of treatment. The total number of viable cells was determined by trypan blue exclusion.

The subject of series [1] is DLD1 (human colorectal tumor cell line). The series is described as follows: Cytotoxicity assay (trypan blue exclusion, 96 h), DLD1. The class given is cell-based.
Another series has as its system DU145. The series is described as follows: Soft agar colony formation, DU145. The series is classed as cell-based, human. The note with it: DU145, dose dependent.
A further series relates to HUVEC. The series is described as follows: PARP cleavage western blot, normal cells. The series is classed as cell-based, human. The note with it: HUVEC, 24, 48 and 72 h. How it is done:
(§3) FIG. 2 Preferential tumor cell killing activity of 6aa. A. Cell Cycle analyses. Normal (HUVEC) and tumor cells (DU145) were treated with 20 nM concentration of 6aa and incubated in medium containing 10% fetal bovine serum. At 24 hr intervals, the cells were fixed, stained with propidium iodide and analyzed for their DNA content by flow Cytometry. B. Induction of apoptosis in normal (HUVEC) and tumor cells (DU145) was assessed by western blot analysis of cell lysates treated with 6aa for 24, 48 and 72 h. The Western blots were probed with anti-PARP antibodies to assess the cleavage of the protein.
[…] were plated at a density of 3.0×10^6 cells per 150 mm^2 plate and treated 24 h later with either DMSO or 6aa. The cells were collected at the indicated time points and cell pellets were frozen. The frozen cell pellets were lysed in 1% NP40/PBS lysis buffer containing protease inhibitors. Equal amounts of total cellular protein was then resolved on a 10%-SDS-polyacrylamide gel. The gels were transferred onto nitrocellulose paper (S/S), hybridized with anti-PARP antibodies (BD) and developed using ECL (Perkin-Elmer, MA) solution.
Background: A western blot detects proteins with antibodies after separation by electrophoresis.

Another series has as its system 2008. Put plainly: Tumor cell killing, 2008. The series is classed as cell-based, human. Conditions: 2008, Ovarian; read-out: Tumor cell killing (IC50) concentration. The procedure: as §1, §2
The test system of a further series is BT20. The series is described as follows: Soft agar colony formation, BT20. The class given is cell-based, human. The note with it: BT20, dose dependent.
Another series deals with 2008/17/4. The series is described as follows: Tumor cell killing, 2008/17/4. The class given is cell-based, human. The note with it: *2008/17/4, Resistant Ovarian (multi-drug resistant); read-out: Tumor cell killing (IC50) concentration. How it is done:
as §1, §2

Series [2] has as its system human vascular endothelial cells (HUVEC). The series is described as follows: Cell cycle analysis by flow cytometry, normal cells. The series is classed as cell-based. The note with it: 20 nM, 24 hr intervals. The procedure:
as §3
Human prostate tumor cells, DU145 cells, and normal diploid human lung fibroblasts, HFL-1 cells, were grown in DMEM (Cellgro) supplemented with 10% fetal bovine serum and 1 unit/mL penicillin-streptomycin. The cells were plated onto 100 mm^2 dishes at a cell density of 1.0×10^6 cells/dish, and 24 h later, they were treated with 2.5 μM of the compound. The cells were harvested 24, 48 and 72 h after treatment. The cells were removed from the plate by trypsin digestion and combined with the non-attached cells found in the medium. The cell pellets were washed in phosphate buffered saline (PBS), and fixed in ice cold 70% ethanol for at least 24 h. […] The stained cells were then analyzed on a Becton-Dickinson (BD) (FACScan) flow cytometer and the data analyzed by cell cycle analysis software (Modfit, BD).
For orientation: In flow cytometry, cells or beads pass a laser one at a time.

For the next series, the system named is SW480. Put plainly: Tumor cell killing, SW480. The series is classed as cell-based, human. Conditions: SW480, COLO-RECTAL; read-out: Tumor cell killing (IC50) concentration. How it is done:
as §1, §2

Series [3] relates to BT20, DU145, H157 and DLD1 cell lines. Put plainly: In vitro cytotoxicity, four human tumor cell lines (SAR discussion). The class given is cell-based.
Series [4] relates to DU145 (human prostate tumor cell line). Put plainly: Cytotoxicity assay (trypan blue exclusion, 96 h), DU145. The series is classed as cell-based.
Where [5] appears, read: DLD1, 96 h treatment, read-out: DLD1 IC50.
[6] abbreviates: DLD-1, COLO-RECTAL, Table 2, read-out: Tumor cell killing (IC50) concentration.
[7] abbreviates: DU145, 96 h treatment, read-out: DU145 IC50.
Setting [8] is: DU145, PROSTATE (AR−), Table 2, read-out: Tumor cell killing (IC50) concentration.

Like-named read-outs stand apart in the source and are kept apart here.

On to `COc1cc(OC)c(/C=C/S(=O)(=O)Cc2ccc(OC)c(O)c2)c(OC)c1` [6aa, (E)-2,4,6-Trimethoxystyryl-3-Hydroxy-4-Methoxybenzyl Sulfone], for which the IC50 with MES-SA came to 6 nM; in the series with K562, 4 nM; in series [1] (setting [5]), 3 nM; in series [1] (setting [6]), 8 nM; in the series on 2008, 5 nM; with 2008/17/4, 4 nM. The IC50 in the series on SW480 stood at 7 nM; in series [4] (setting [7]), 3 nM; in series [4] (setting [8]), 7 nM. For the same compound, the “growth of tumor cells in soft agar” value in the series on DU145 and with BT20 was “complete inhibition of the growth of tumor cells” in each case. Besides, the PARP cleavage result with HUVEC is “No PARP cleavage was observed”. In series [2], the “effect on cell cycle progression” value is “block of their cell cycle progression in the G1 phase”. Moreover, the “cytotoxic activity, SAR statement” value in series [3] (four human tumor cell lines) was “best activity in the entire series”. The “fold more active than 6s” value in series [3] (in all four cell lines) was in the range of 8 to 10 fold.
For the compound `COc1ccc(CS(=O)(=O)/C=C/c2c(OC)cc(OC)cc2OC)cc1` [6s, (E)-2,4,6-Trimethoxystyryl-4-Methoxybenzyl sulfone], the IC50 was determined as 10 nM with MES-SA; 40 nM in series [1] (setting [5]); 40 nM in series [1] (setting [6]); 25 nM in [4] (setting [7]); 25 nM in series [4] (setting [8]). Further, the “fold more active than 6m” value in series [3] (cell-killing assays) was found to be 20 fold.
